Here are results for one compound from US20050142230A1, “Pharmic activity and manufacturing method of the production produced by six kinds of plant compound” (priority 2003, published 2005).

SMILES strings stand for the structures.

The subject of this test is male white mice. Put plainly: Hypnosis effect taking orally (lost righting reflex half minute). In kind it is in vivo. The conditions noted are these: for The sleep animals: 30 mg/kg, n=25. As to the method: The male white mice (weighing 18-22 g) were divided into groups at random. Every group had twenty five. Experimental group douched the stomach with the compound by 0.08, 0.3, 0.4 ml/10 g, pentobabital sodium 30 mg/kg, the control group gave the same volumn saline. Then put them into the constant temperature infant cabinet at 37° C. We observed the mumber of the mice sleep. The standard was the half minute continous lost righting reflexs (table 3 was the result). […] The compound wares had hypnosis effect.

Take `CCCC(C)C1(CC)C(=O)N=C([O-])NC1=O.[Na+]` (centres unmarked) [Pentobabital sodium]: the The sleep animals is, setting by setting: (5′) 20TT; (30′) 25TT; (60′) 21TT; (90′) 13. Moreover, the “Hypnosis effect (in words)” value (30 ml/kg as printed in text, mice) is listed as “let them all sleep”.
